One assay addresses T1, PI3K-delta (Homo sapiens, UniProt O00329).
T1 construct: purchased Upstate; Millipore 14-604
The assay is described as follows: HTRF PI3K biochemical assay, delta isoform. As to conditions: form screened (neutral or TFA salt) given, read-out: PI3Kdelta IC50. In general terms: TR-FRET usually uses a lanthanide donor and a delayed reading to cut background.

The target of the next assay is T2, PI3K-alpha (Homo sapiens, UniProt P42336).
T2 construct: purchased Upstate; Millipore 14-602
T2 sequence (P42336 whole entry): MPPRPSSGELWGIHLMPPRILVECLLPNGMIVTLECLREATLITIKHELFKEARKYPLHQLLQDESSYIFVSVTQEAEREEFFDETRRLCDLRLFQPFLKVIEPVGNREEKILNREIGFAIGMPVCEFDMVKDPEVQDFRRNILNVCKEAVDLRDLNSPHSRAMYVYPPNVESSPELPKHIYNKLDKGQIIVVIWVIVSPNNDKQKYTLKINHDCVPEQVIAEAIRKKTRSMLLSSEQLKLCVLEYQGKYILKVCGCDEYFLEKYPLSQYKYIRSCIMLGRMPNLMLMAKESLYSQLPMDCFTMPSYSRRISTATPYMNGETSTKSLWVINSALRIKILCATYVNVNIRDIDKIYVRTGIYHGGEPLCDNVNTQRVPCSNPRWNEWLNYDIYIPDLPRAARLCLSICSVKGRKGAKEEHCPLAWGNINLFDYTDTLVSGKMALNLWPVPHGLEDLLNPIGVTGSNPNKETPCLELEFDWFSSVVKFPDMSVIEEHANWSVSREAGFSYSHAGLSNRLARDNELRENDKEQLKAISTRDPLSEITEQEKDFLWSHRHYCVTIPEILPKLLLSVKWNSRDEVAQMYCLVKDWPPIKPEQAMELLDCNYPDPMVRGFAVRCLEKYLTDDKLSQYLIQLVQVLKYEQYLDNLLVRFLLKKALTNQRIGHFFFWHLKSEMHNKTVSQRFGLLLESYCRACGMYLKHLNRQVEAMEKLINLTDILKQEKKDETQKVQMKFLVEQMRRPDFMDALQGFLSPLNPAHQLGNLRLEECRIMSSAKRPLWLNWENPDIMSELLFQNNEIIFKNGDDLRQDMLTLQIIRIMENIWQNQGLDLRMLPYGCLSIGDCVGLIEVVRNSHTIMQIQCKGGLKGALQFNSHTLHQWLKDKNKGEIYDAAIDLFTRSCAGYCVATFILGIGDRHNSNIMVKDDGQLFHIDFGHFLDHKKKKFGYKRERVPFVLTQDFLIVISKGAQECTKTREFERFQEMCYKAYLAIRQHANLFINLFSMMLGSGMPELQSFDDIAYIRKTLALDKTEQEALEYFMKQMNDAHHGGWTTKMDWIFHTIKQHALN
T2 sequence (P27986 whole entry partner): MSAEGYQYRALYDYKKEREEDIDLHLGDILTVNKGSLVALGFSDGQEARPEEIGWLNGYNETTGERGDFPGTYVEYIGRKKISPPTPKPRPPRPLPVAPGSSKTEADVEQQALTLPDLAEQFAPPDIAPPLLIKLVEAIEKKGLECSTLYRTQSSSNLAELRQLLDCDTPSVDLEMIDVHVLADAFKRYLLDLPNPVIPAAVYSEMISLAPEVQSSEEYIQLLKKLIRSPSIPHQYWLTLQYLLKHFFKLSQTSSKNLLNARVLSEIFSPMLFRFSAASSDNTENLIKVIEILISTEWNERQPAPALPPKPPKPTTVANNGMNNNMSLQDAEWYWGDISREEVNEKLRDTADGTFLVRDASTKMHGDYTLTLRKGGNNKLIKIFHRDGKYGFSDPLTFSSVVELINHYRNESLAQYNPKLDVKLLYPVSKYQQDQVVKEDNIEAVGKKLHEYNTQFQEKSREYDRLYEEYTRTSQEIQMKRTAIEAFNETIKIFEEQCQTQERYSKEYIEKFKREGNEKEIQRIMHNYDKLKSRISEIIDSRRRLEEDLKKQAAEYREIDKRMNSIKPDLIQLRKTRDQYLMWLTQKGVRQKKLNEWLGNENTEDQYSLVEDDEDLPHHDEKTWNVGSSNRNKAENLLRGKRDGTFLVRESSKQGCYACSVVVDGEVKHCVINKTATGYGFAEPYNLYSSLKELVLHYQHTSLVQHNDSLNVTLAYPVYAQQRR
As to the kind of experiment: HTRF PI3K biochemical assay, alpha isoform. As to conditions: ratio PI3K-alpha IC50 value / PI3K-delta IC50 value.

The structures appear in SMILES notation.

T1 sequence (O00329 whole entry): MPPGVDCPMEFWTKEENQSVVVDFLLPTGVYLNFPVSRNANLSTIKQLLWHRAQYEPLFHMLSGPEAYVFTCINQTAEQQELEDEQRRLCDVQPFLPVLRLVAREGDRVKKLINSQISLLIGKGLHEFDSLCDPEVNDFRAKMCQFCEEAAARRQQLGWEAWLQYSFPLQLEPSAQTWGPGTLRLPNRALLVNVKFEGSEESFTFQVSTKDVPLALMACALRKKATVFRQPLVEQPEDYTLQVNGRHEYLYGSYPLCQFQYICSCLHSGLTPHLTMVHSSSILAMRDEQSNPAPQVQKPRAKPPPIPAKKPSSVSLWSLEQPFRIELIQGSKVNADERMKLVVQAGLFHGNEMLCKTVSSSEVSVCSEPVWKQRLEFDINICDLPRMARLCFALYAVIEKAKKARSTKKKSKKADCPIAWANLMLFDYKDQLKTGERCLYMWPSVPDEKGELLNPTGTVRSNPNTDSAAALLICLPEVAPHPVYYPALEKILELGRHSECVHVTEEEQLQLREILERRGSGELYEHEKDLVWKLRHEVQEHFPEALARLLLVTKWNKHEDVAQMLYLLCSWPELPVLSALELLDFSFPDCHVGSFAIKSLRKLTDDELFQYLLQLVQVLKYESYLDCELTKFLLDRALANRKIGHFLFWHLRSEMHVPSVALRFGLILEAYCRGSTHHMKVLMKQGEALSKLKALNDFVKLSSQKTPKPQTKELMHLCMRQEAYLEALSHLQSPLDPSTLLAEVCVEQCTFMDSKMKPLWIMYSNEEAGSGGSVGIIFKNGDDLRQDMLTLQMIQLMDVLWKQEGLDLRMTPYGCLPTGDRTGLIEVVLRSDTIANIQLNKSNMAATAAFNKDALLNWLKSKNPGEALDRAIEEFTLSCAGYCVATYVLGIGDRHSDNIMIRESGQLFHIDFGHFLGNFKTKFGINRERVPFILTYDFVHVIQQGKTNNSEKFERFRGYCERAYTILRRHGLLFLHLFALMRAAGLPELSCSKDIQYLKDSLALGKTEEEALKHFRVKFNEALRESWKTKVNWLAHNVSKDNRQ
T1 sequence (P27986 whole entry partner): as the sequence (P27986 whole entry partner) above

As for `CCc1nc2c(N[C@H]3CCN(C(=O)C4CC4)C3)ncnc2n1CC` [Compound 7-23, N-[(3S)-1-(cyclopropylcarbonyl)pyrrolidin-3-yl]-8,9-diethyl-9H-purin-6-amine], the IC50 on PI3K-delta came out at 120 nM. Further, on PI3K-alpha, the “Selectivity versus PI3Kalpha” value was >10.

For `CCn1c(-c2cnc(C)nc2)nc2c(N[C@H]3C[C@H](C(=O)NC)N(C(=O)C4CC4)C3)ncnc21` [Compound 15-3, (4S)-1-(cyclopropylcarbonyl)-4-{[9-ethyl-8-(2-methylpyrimidin-5-yl)-9H-purin-6-yl]amino}-N-methyl-D-prolinamide], at PI3K-delta, the IC50 was 12 nM. At PI3K-alpha, the “Selectivity versus PI3Kalpha” value is recorded as >10.

For `CCn1c(-c2ccc(C(F)(F)F)nc2)nc2c(N[C@H]3CCN(C(=O)C4CCOC4)C3)ncnc21` (single isomer, unassigned) [Compound 2-101, 9-ethyl-N-{(3S)-1-[(3R or 3S)-tetrahydrofuran-3-ylcarbonyl]pyrrolidin-3-yl}-8-[6-(trifluoromethyl)pyridin-3-yl]-9H-purin-6-amine], the IC50 on PI3K-delta is < 1 nM. Also, the “Selectivity versus PI3Kalpha” value at PI3K-alpha was >10.

`CCC(=O)N1CC[C@H](Nc2ncnc3c2nc(-c2ccc(Cl)nc2)n3C)C1` [Compound 3-14, 8-(6-chloropyridin-3-yl)-9-methyl-N-[(3S)-1-propanoylpyrrolidin-3-yl]-9H-purin-6-amine]: the IC50 at PI3K-delta turned out to be 2.1 nM. For the same compound, on PI3K-alpha, the “Selectivity versus PI3Kalpha” value is >10.

With `C=C(C)CN1CC(Nc2ncnc3c2nc(-c2cnn(CC)c2C)n3C)CC1=O` (racemic) [Compound 14-2, 4(S and R)-{[8-(1-ethyl-5-methyl-1H-pyrazol-4-yl)-9-methyl-9H-purin-6-yl]amino}-1-(2-methylprop-2-en-1-yl)pyrrolidin-2-one], the IC50 at PI3K-delta came out at 10 nM. Besides, at PI3K-alpha, the “Selectivity versus PI3Kalpha” value is given as >10.

As to `CCn1c(-c2cnc(C)nc2)nc2c(NC3CN(C(=O)C4CC4)CC3C)ncnc21` (single isomer, unassigned) [Compound 2-87, N-[(3S,4R or 3R,4S)-1-(cyclopropylcarbonyl)-4-methylpyrrolidin-3-yl]-9-ethyl-8-(2-methylpyrimidin-5-yl)-9H-purin-6-amine], the IC50 on PI3K-delta was determined as 1.7 nM. Also, the “Selectivity versus PI3Kalpha” value at PI3K-alpha is listed as >10.

Take `CCn1c(-c2cnc(C)nc2)nc2c(N[C@H]3CCN(C(=O)OC)C3)ncnc21` [Compound 13-2, methyl (3S)-3-{[9-ethyl-8-(2-methylpyrimidin-5-yl)-9H-purin-6-yl]amino}pyrrolidine-l-carboxylate]: on PI3K-delta, the IC50 is 9.2 nM. The “Selectivity versus PI3Kalpha” value on PI3K-alpha is reported as >10.

On to `CCn1c(-c2cnc(C)nc2)nc2c(N[C@H]3C[C@H](C(=O)NCCO)N(C(=O)C4CC4)C3)ncnc21` [Compound 15-7, (4S)-1-(cyclopropylcarbonyl)-4-{[9-ethyl-8-(2-methylpyrimidin-5-yl)-9H-purin-6-yl]amino}-N-(2-hydroxyethyl)-D-prolinamide], for which the IC50 at PI3K-delta came out at 5.8 nM. Also, at PI3K-alpha, the “Selectivity versus PI3Kalpha” value was >10.

For the compound `CCn1c(-c2cnc(C)nc2)nc2c(N[C@H]3CCN(C(=O)[C@@H]4C[C@@H]4C)C3)ncnc21` [Compound 2-90, 9-ethyl-N-[(3S)-1-{[(1R,2S)-2-methylcyclopropyl]carbonyl}pyrrolidin-3-yl]-8(2-methylpyrimidin-5-yl)-9H-purin-6-amine], the IC50 on PI3K-delta amounted to 1.3 nM. For the same compound, at PI3K-alpha, the “Selectivity versus PI3Kalpha” value is on record as >10.

For `CCn1c(-c2cnc(OC)c(F)c2)nc2c(N[C@H]3CCN(C(=O)c4cocn4)C3)ncnc21` [Compound 3A-1, 9-ethyl-8-(5-fluoro-6-methoxypyridin-3-yl)-N-[(3S)-1-(1,3-oxazol-4-ylcarbonyl)pyrrolidin-3-yl]-9H-purin-6-amine], the IC50 on PI3K-delta is 1 nM. Besides, the “Selectivity versus PI3Kalpha” value at PI3K-alpha is recorded as >10.

Consider `CCN(c1ncnc2c1nc(-c1cnc(C)nc1)n2CC)[C@H]1CCN(C(=O)C2CC2)C1` [Compound 3-28, N-[(3S)-1-(cyclopropylcarbonyl)pyrrolidin-3-yl]-N,9-diethyl-8-(2-methylpyrimidin-5-yl)-9H-purin-6-amine], for which the IC50 on PI3K-delta is 6.7 nM. The “Selectivity versus PI3Kalpha” value at PI3K-alpha is on record as >10.

Take `CCn1c(C(F)F)nc2c(N[C@H]3CCN(C(=O)C4CCC4)C3)ncnc21` [Compound 7-15, N-[(3S)-1-(cyclobutylcarbonyl)pyrrolidin-3-yl]-8-(difluoromethyl)-9-ethyl-9H-purin-6-amine]: at PI3K-delta, the IC50 came to 7.6 nM. The “Selectivity versus PI3Kalpha” value at PI3K-alpha is >10.

`CCn1c(-c2cnc(C)nc2)nc2c(N[C@H]3CCN(C(=O)OCc4ccccc4)C3)ncnc21` [Compound 13-10, benzyl (3S)-3-{[9-ethyl-8-(2-methylpyrimidin-5-yl)-9H-purin-6-yl]amino}pyrrolidine-1-carboxylate]: the IC50 on PI3K-delta amounted to 2 nM. Also, on PI3K-alpha, the “Selectivity versus PI3Kalpha” value was >10.

As for `CCn1c(-c2cnc(C)nc2)nc2c(N[C@H]3CC[C@@H](C(=O)N4CCC4)C3)ncnc21` [Compound 5-6, N-[(1S,3R)-3-(azetidin-1-ylcarbonyl)cyclopentyl]-9-ethyl-8-(2-methylpyrimidin-5-yl)-9H-purin-6-amine], the IC50 at PI3K-delta amounted to 11 nM. The “Selectivity versus PI3Kalpha” value at PI3K-alpha is listed as >10.

For `CCn1c(-c2cnc(C)nc2)nc2c(N[C@H]3CCN(C(=O)CN(C)C)C3)ncnc21` [Compound 2-31, N-{(3S)-1-[(dimethylamino)acetyl]pyrroli-din-3-yl}-9-ethyl-8-(2-methylpyrimidin-5-yl)-9H-purin-6-amine], the IC50 at PI3K-delta was 10 nM. Moreover, at PI3K-alpha, the “Selectivity versus PI3Kalpha” value is reported as >10.

As for `CCn1c(-c2cnc(C)nc2)nc2c(N(C)[C@H]3CCN(C(=O)[C@H]4CC[C@@H](O)CC4)C3)ncnc21` [Compound 2-100, cis-4-{[(3S)-3-{[9-ethyl-8-(2-methylpyrimidin-5-yl)-9H-purin-6-yl](methyl)amino}pyrrolidin-1-yl]carbonyl}cyclohexanol], the IC50 at PI3K-delta worked out at 6.3 nM. Further, the “Selectivity versus PI3Kalpha” value at PI3K-alpha is on record as >10.

For `CCn1c(-c2ccc(C(F)(F)F)nc2)nc2c(N[C@H]3CCN(c4ccccn4)C3)ncnc21` [Compound 4-4, 9-ethyl-N-[(3S)-1-pyridin-2-ylpyrrolidin-3-yl]-8-[6-(trifluoromethyl)pyridin-3-yl]-9H-purin-6-amine], the IC50 at PI3K-delta was < 1 nM. Besides, on PI3K-alpha, the “Selectivity versus PI3Kalpha” value was >10.

In the case of `CCC(=O)N1CC[C@H](Nc2ncnc3c2nc(-c2cncc(C(C)(C)O)c2)n3C)C1` [Compound 3-34, 2-[5-(9-methyl-6-{[(3S)-1-propanoylpyrrolidin-3-yl]amino}-9H-purin-8-yl)pyridin-3-yl]propan-2-ol], the IC50 at PI3K-delta is 2 nM. Also, on PI3K-alpha, the “Selectivity versus PI3Kalpha” value is recorded as >10.

For `CCn1c(C(F)F)nc2c(N[C@H]3CCN(C(=O)c4ccn(C)n4)C3)ncnc21` [Compound 7-12, 8-(difluoromethyl)-9-ethyl-N-{(3S)-1-[(1-methyl-1H-pyrazol-3-yl)carbonyl]pyrrolidin-3-yl}-9H-purin-6-amine], at PI3K-delta, the IC50 is 39 nM. Besides, at PI3K-alpha, the “Selectivity versus PI3Kalpha” value is on record as >10.

Regarding `CCn1c(N2CC[C@@H](O)C2)nc2c(N[C@H]3CCN(C(=O)C4CC4)C3)ncnc21` [Compound 8-1, (3R)-1-(6-{[(3S)-1-(cyclopropylcarbonyl)pyrrolidin-3-yl]amino}-9-ethyl-9H-purin-8-yl)pyrrolidin-3-ol], on PI3K-delta, the IC50 was determined as 510 nM. On PI3K-alpha, the “Selectivity versus PI3Kalpha” value is given as >10.

Consider `CCn1c(C(=O)Nc2ccccc2)nc2c(N[C@H]3CCN(C(=O)C4CC4)C3)ncnc21` [Compound 6-18, 6-{[(3S)-1-(cyclopropylcarbonyl)pyrrolidin-3-yl]amino}-9-ethyl-N-phenyl-9H-purine-8-carboxamide], for which the IC50 at PI3K-delta turned out to be 15 nM. Besides, on PI3K-alpha, the “Selectivity versus PI3Kalpha” value was >10.

As for `CCC(=O)N1CC[C@H](Nc2ncnc3c2nc(C(F)F)n3CC)C1` [Compound 7-13, 8-(difluoromethyl)-9-ethyl-N-[(3S)-1-propanoylpyrrolidin-3-yl]-9H-purin-6-amine], the IC50 at PI3K-delta is 32 nM. Further, the “Selectivity versus PI3Kalpha” value at PI3K-alpha is >10.

On to `CCn1c(-c2cnc(C(C)(C)C)s2)nc2c(N[C@H]3CCN(C(=O)OC(C)(C)C)C3)ncnc21` [Compound 1-6, (S)-tert-butyl 3-((8-(2-(tert-butyl)thiazol-5-yl)-9-ethyl-9H-purin-6-yl)amino)pyrrolidine-1-carboxylate], for which the IC50 at PI3K-delta was < 1 nM. Besides, the “Selectivity versus PI3Kalpha” value at PI3K-alpha amounted to 8.

Consider `CCn1c(-c2cnc(C)nc2)nc2c(N[C@H]3C[C@H](C(=O)O)N(C(=O)C4CC4)C3)ncnc21` [Compound 15-1, (4S)-1-(cyclopropylcarbonyl)-4-{[9-ethyl-8-(2-methylpyrimidin-5-yl)-9H-purin-6-yl]amino}-D-proline], for which, at PI3K-delta, the IC50 was 2.5 nM. Moreover, on PI3K-alpha, the “Selectivity versus PI3Kalpha” value is on record as >10.

As to `CCn1c(-c2cnc(C)nc2)nc2c(N[C@H]3C[C@@H](C(=O)NC)N(C(=O)C4CC4)C3)ncnc21` [Compound 15-9, (4S)-1-(cyclopropylcarbonyl)-4-{[9-ethyl-8-(2-methylpyrimidin-5-yl)-9H-purin-6-yl]amino}-N-methyl-L-prolinamide], the IC50 on PI3K-delta came out at 46 nM. Further, the “Selectivity versus PI3Kalpha” value on PI3K-alpha is >10.

`CCn1c(-c2cnc(C)nc2)nc2c(NC3CN(C(=O)C4CC4)CC3F)ncnc21` (single isomer, unassigned) [Compound 3-21, N-[(3R,4R or 3S,4S)-1-(cyclopropylcarbonyl)-4-fluoropyrrolidin-3-yl]-9-ethyl-8-(2-methylpyrimidin-5-yl)-9H-purin-6-amine]: on PI3K-delta, the IC50 is 3.4 nM. Moreover, the “Selectivity versus PI3Kalpha” value on PI3K-alpha is reported as >10.

Take `CCn1c(-c2cnc(C)nc2)nc2c(N[C@H]3CCN(C(=O)c4cc(C)on4)C3)ncnc21` [Compound 2-70, 9-ethyl-N-{(3S)-1-[(5-methylisoxazol-3-yl)carbonyl]pyrrolidin-3-yl}-8-(2-methylpyrimidin-5-yl)-9H-purin-6-amine]: the IC50 at PI3K-delta was 7.4 nM. Moreover, the “Selectivity versus PI3Kalpha” value on PI3K-alpha is listed as >10.

Values taken from patent US9938281B2 (Merck Sharp & Dohme Corp., priority 2012, dated 2018).
